Series [1] in a line: Cellular viability assay (alamarBlue) in TZM-bl cells. Conditions: human, 50% cytotoxic concentration. The class given is cell-based.
Series [2] has as its system P. falciparum strain NF54. Briefly: Blood stage antiplasmodial activity, SYBR green I flow cytometry. The class given is cell-based. To be noted: Plasmodium falciparum, NF54, 48 h. Here is the method:
Ring-stage synchronized cultures of P. falciparum strain NF54 at 2.5% hematocrit and at approximately 1% parasitemia were incubated with test compounds or dimethyl sulfoxide (DMSO, vehicle control) in 96-well plates for 48 h at 37°C in a 5% CO2 and 5% O2 atmosphere. Stock solutions of chloroquine (positive control) and compounds 9i, 12a, and 14a were prepared in DMSO. Working solutions were prepared from the stock solutions in complete malaria culture medium (CMCM), which consists of RPMI 1640 supplemented with 25 mM HEPES, 2.4 mM L-glutamine, 50 μg/ml gentamicin, 0.5% w/v Albumax, 11 mM glucose, 1.47 mM hypoxanthine, and 37.3 mM NaHCO3. For each measurement, 5 μl of the culture (approximately 800,000 cells) were stained with the DNA-specific dye SYBR green I. After 20 min of incubation in the dark, the stained sample was analyzed by flow cytometry. Approximately 100,000 events were analyzed in each flow cytometry measurement. Two independent experiments were performed, and all samples were analyzed in triplicate.

For series [3], the system named is HIV-2 03PTHCC19. Briefly: microbe, parasite or virus in culture. To be noted: Human immunodeficiency virus 2, TZM-bl.
The subject of series [4] is HIV-1 SG3.1. Put plainly: microbe, parasite or virus in culture.
Series [5] deals with P. berghei hepatic stage. Briefly: In vitro hepatic infection of Huh7 cells by luciferase-expressing P. berghei. The class given is cell-based. To be noted: Plasmodium berghei. The protocol: The inhibitory activity of test compounds on in vitro hepatic infection by P. berghei was determined by comparing the parasite load in compound- and solvent-treated P. berghei-infected Huh7 cells. Infection load was assessed by measurement of luminescence intensity in Huh7 cells infected, with a firefly luciferase-expressing P. berghei line, as previously described ([Ploemen et al., 2009]; [António et al., 2017]). Briefly, Huh7 cells were seeded in 96-well plates (1.0 × 10^4 cells per well) the day before drug treatment and infection. The medium was replaced by another medium containing the appropriate concentration of each compound approximately 1 h prior to infection with sporozoites freshly obtained through disruption of salivary glands of infected female Anopheles stephensi mosquitoes. Sporozoite addition was followed by centrifugation at 1,800 g for 5 min. Parasite infection load was measured 48 h after infection by a bioluminescence assay (Biotium). Cell confluence, a surrogate measure of compound toxicity to Huh7 cells, was assessed by fluorescence measurements using the alamarBlue assay, according to the manufacturer’s instructions. […] Specifically, non-linear regression analysis was employed to fit the normalized results of the dose-response curves, and IC50 values were determined using GraphPad Prism 8.0 (GraphPad Software, La Jolla, California, United States).

Series [6] concerns P. falciparum strain NF54. Further details: method as in Bártolo et al., 2021; Alves et al., 2021c. Conditions: erythrocytic infection; ref Bártolo et al., 2021; Alves et al., 2021c; cited from earlier work.
The subject of series [7] is HIV-1 SG3.1. Conditions: ref Bártolo et al., 2021, cited from earlier work.
The test system of series [8] is TZM-bl cells. Further details: method as in Bártolo et al., 2021. Conditions: lead molecule, ref Bártolo et al., 2021; cited from earlier work.
In series [9] the test system is HIV protease. Further details: method as in Bártolo et al., 2021. To be noted: ref Bártolo et al., 2021; cited from earlier work.
In series [10] the test system is P. berghei hepatic stage. Also noted: method as in Bártolo et al., 2021; Alves et al., 2021c. Conditions: hepatic infection; ref Bártolo et al., 2021; Alves et al., 2021c; cited from earlier work.
Series [11] concerns HIV-2 03PTHCC19. Also noted: method as in Bártolo et al., 2021. Conditions: ref Bártolo et al., 2021, cited from earlier work.

Structures are written as SMILES. Like-named read-outs stand apart in the source and are kept apart here.

The source of these data is PMC9585939, “Unveiling a family of spiro-β-lactams with anti-HIV and antiplasmodial activity via phosphine-catalyzed [3+2] annulation of 6-alkylidene-penicillanates and allenoates” (Frontiers in Chemistry, 2022).

A word on the CC50: it is the concentration giving 50% cytotoxicity. As a reminder, the IC50 is the midpoint of a concentration-inhibition curve. By IC90 is commonly meant the concentration needed for an effect of 90%. By melting point is commonly meant the temperature of the solid-liquid transition. Regarding `COc1ccc(COC(=O)C2=CCC3(C(=O)N4C(C(=O)OC(c5ccccc5)c5ccccc5)C(C)(C)SC43)C2C(=O)c2ccc(F)cc2)cc1` (stereo not drawn) [Compound 14a, (1′R,2′R)-benzhydryl spiro[(2-(4-fluorobenzoyl)-3-(4-methoxybenzyloxycarbonyl)cyclopent-3-ene)-1′,6-penicillanate]], the melting point lay within 72.9 to 74.9 °C. In series [1], this compound yielded a cytotoxic concentration (CC50) of 75100 nM. This compound yielded an IC50 in [2] of 292 ± 62 nM. Besides, the half-maximal inhibitory concentration (IC50) in series [3] (48 h, read-out: IC50 HIV-2) turned out to be 13 nM. In addition, the concentration for an effect of 90% (IC90) in series [3] (48 h, read-out: IC90 HIV-2) stood at 51 nM. Further, in series [3] (read-out: MPI (%) 25 μg/mL), the inhibition at 25 µg/mL worked out at 100%. Moreover, the 50% inhibitory concentration (IC50) in [4] (Human immunodeficiency virus 1, TZM-bl, 48 h, read-out: IC50 HIV-1, TZM-bl cells, 48 h) was below 20 nM. The IC90 in [4] (Human immunodeficiency virus 1, TZM-bl, 48 h, read-out: IC90 HIV-1) came out at 48 nM. The inhibition at 25 µg/mL in [4] (Human immunodeficiency virus 1, TZM-bl, read-out: MPI (%) 25 μg/mL) was found to be 100%. For the same compound, the IC50 in [4] (read-out: IC50 HIV-1, TZM-bl cells, 48 h) came to 12 nM. The inhibition at 1 µM in series [5] (Huh-7, read-out: percentage of inhibition of hepatic infection) is below 50%. In addition, half-maximal inhibition in series [5] (Huh-7, hepatic stage, Huh7 cells, 48 h after infection) (IC50) was put at 750 ± 107 nM.

Consider `CC1(C)SC2N(C(=O)C23CC=C(C(=O)OCc2ccccc2)C3C(=O)c2ccccc2)C1C(=O)OC(c1ccccc1)c1ccccc1` (stereo not drawn) [BSS-730A], for which the IC50 was 430 ± 40 nM in series [6]; 14 nM in [7] (Alves et al., 2021c); 550 ± 140 nM in [10]; 8 nM in series [11]. In addition, the “MPI (%) 25 μg/mL” value is 99% in series [7] (HIV-1, 25 μg/mL, lead molecule) and 99% in [11] (HIV-2, 25 μg/mL, lead molecule). For the same compound, the “Therapeutic index (CC50/IC50)” value in series [7] (HIV-1, lead molecule) is 5488.57; in series [11] (HIV-2, lead molecule), 9605.00. Further, the IC90 in [7] (lead molecule) was 25 nM; in series [11] (lead molecule) it was 64 nM. The half-maximal cytotoxic concentration (CC50) in series [8] is 76800 nM. Moreover, the “HIV antiprotease activity (in words)” value in series [9] is given as “no HIV antiprotease activity”.
